The target of one data set is T1, TNF-α (Homo sapiens, UniProt P01375).
T1 construct: purchased BPS Bioscience 79756
The experiment in a line: TNFR2: TNF-α [biotinylated] inhibitor screening assay. It counts as binding. The conditions noted are these: for IC50: mean ± SD of three experiments. The procedure:
The assay was performed in triplicates using TNFR2: TNF-α [biotinylated] […] First, TNFR2 is coated on a 96-well plate. Next, biotinylated TNF-α is incubated with TNFR2 on the plate. Finally, the plate was treated with streptavidin-HRP followed by addition of an HRP substrate to produce chemiluminescence, which can be measured using a chemiluminescence reader.

The target in another data set is T2, COX-2 (Homo sapiens, UniProt P35354).
T2 sequence (P35354 18-604): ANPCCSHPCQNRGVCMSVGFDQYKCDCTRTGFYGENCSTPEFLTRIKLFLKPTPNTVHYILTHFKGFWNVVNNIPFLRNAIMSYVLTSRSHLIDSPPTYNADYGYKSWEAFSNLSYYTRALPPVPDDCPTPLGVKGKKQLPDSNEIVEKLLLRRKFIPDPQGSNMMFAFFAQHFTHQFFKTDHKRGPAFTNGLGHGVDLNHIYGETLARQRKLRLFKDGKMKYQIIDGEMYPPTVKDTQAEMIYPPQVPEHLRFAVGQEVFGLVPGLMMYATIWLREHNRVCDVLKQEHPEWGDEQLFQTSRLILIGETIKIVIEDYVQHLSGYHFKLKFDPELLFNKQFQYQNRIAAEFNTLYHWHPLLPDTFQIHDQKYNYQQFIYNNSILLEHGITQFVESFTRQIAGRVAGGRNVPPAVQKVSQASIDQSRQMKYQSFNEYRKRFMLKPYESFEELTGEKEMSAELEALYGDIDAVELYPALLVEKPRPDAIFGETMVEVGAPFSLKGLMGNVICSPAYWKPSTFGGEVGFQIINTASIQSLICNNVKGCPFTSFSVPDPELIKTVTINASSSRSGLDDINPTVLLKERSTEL
The experiment in a line: Cyclooxygenase COX-2 inhibition assay (Cayman COX inhibitor screening kit, EIA). The conditions noted are these: for Selectivity indexes (SI): SI = IC50 COX-1/COX-2 ratios.

A further data set deals with T3, 15-LOX (Glycine max, UniProt P08170).
T3 construct: purchased Cayman Chemical 760700
T3 sequence (P08170 1-839): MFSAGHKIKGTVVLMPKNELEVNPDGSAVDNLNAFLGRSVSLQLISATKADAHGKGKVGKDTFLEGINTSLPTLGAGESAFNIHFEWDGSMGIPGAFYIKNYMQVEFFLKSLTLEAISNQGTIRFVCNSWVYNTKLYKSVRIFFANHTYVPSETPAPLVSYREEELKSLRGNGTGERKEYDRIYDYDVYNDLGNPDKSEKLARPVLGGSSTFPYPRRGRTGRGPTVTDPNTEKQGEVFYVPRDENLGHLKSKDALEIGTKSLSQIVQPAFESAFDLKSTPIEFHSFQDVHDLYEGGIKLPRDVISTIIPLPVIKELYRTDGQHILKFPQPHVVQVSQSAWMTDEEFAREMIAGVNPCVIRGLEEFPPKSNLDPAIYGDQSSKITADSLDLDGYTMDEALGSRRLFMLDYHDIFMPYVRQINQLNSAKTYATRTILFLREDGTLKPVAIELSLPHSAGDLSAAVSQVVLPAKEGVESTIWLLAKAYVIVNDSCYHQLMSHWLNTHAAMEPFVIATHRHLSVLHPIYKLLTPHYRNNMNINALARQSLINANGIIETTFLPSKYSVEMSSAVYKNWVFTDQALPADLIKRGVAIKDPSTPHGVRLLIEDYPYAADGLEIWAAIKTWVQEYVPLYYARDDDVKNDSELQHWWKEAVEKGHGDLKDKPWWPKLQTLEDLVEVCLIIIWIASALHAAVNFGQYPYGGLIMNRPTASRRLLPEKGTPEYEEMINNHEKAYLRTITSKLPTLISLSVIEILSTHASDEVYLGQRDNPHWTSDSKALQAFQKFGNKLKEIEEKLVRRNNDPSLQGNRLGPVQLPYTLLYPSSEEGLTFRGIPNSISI
Put plainly: Lipoxygenase (15-LOX) inhibition assay (Cayman LOX inhibitor screening kit). It counts as biochemical, soybean. The conditions noted are these: mean ± SD of three experiments. The procedure: Briefly, in a 96-well plate, 10 µl of each test compound (dissolved in DMSO) or vehicle were pre-incubated with 90 µl of 15-LOX enzyme. The reaction was started by addition of 10 µl of substrate (AA) and the plate was shaken for at least 5 min. Then, 100 µl of chromogen supplied with the kit was added to each well to stop the enzymatic reaction and develop the colour. The absorbance was measured at 490 nm using microplate reader.
Therefore, the soybean LOX is most like the mammalian 15-LOX[59].

In a further data set the target is T4, COX-1 (Ovis aries, UniProt P05979).
T4 sequence (P05979 25-600): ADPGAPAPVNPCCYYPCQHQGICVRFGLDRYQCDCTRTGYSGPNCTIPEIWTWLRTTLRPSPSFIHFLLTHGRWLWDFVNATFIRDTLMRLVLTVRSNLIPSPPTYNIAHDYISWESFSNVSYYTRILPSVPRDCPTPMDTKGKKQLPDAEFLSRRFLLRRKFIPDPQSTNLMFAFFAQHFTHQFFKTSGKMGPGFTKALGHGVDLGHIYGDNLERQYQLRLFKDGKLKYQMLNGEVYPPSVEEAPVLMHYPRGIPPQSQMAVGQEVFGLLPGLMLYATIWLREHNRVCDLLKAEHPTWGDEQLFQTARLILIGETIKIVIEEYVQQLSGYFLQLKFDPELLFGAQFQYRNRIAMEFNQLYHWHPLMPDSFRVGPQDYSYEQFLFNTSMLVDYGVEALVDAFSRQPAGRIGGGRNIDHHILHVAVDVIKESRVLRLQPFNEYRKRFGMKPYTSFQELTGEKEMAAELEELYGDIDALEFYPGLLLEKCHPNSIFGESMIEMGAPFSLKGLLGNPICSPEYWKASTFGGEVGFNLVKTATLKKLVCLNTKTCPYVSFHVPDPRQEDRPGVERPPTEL
The experiment in a line: Cyclooxygenase COX-1 inhibition assay (Cayman COX inhibitor screening kit, EIA).

Where [1] appears, read: read-out: COX 2 IC50, mean ± SD of three experiments.
The mark [2] stands for this setting: read-out: COX1 IC50, mean ± SD of three experiments.

SMILES strings stand for the structures. Where two headings read alike, the source gives them in different places. Where only a bound is given, the exact number is not on record here.

T1 sequence (P01375 77-233 limits assumed): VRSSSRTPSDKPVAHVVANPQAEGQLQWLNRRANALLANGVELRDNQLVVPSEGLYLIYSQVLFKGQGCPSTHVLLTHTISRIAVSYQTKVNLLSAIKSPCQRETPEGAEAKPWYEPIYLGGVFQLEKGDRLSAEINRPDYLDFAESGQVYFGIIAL
Description for COX-1: (§1) Tested compounds were dissolved in DMSO. […] The COX inhibitor screening assay depends on direct measurement of the amount of PG2α produced in the COX reaction. […] Enzyme catalysis was terminated by addition of 50 µl 1 M HCl and 100 µl of the saturated stannous chloride solution. The PGs are quantified by enzyme immunoassay (EIA) at 410 nm.
(§2) Thus, the newly synthesised compounds were tested for their anti-inflammatory activity against isozymes COX-1 and COX-2, which were determined by the COX-catalysed transformation of AA into PGH2 that was reduced to PGF2α and detected by the EIA[53], as shown in Table 1.
Description for COX-2: as §1, §2

With `O=C1NC(c2ccc(Cl)c(Cl)c2)=CC1=Cc1ccccc1[N+](=O)[O-]` [Compound 3a, 5-(3,4-Dichlorophenyl)-3-(2-nitrobenzylidene)-1H-pyrrol-2-one], the melting point was above 300 °C. Besides, inhibition against TNF-α was half-maximal at 5.93 ± 0.15 nM (IC50). On COX-2, the IC50 was found to be 190 ± 10 nM and the “Selectivity indexes (SI)” value came out at 44.05. Half-maximal inhibition against 15-LOX (IC50) required 2.33 ± 0.12 µM. Moreover, at COX-1, it took 8.37 ± 0.12 µM to reach half-maximal inhibition (IC50).

With `O=C1NN(C(=O)c2ccccc2)C(c2ccc(Cl)c(Cl)c2)=CC1=Cc1ccccc1[N+](=O)[O-]` [Compound 8a, 2-Benzoyl-5-(2-nitrobenzylidene)-3-(3,4-dichlorophenyl)-1H-pyridazin-6-one], the melting point lay within 222 to 224 °C. In addition, 3.83 ± 1.44 nM corresponded to half-maximal inhibition against TNF-α (IC50). Besides, on COX-2, inhibition was half-maximal at 70 nM (IC50) and the “Selectivity indexes (SI)” value came out at 153.86. In addition, the IC50 against 15-LOX was found to be 2.33 ± 0.51 µM. On COX-1, this molecule yielded an IC50 of 10.8 ± 0.15 µM.

With `CN(C)c1ccc(C=C2C=C(c3ccc(Cl)c(Cl)c3)N(c3ccccc3)NC2=O)cc1` [Compound 5c, 6-(3,4-Dichlorophenyl)-4-(4-dimethylaminobenzylidene)-1-phenyl-1,4-dihydropyridazin-3(2H)-one], the melting point is above 300 °C. At TNF-α, this molecule displayed an IC50 of 3.57 ± 0.12 nM. Also, on COX-2, the IC50 turned out to be 90 nM and the “Selectivity indexes (SI)” value is reported as 130.33. On 15-LOX, this molecule came in with an IC50 of 2.97 ± 0.12 µM. For the same molecule, at COX-1, the half-inhibitory concentration (IC50) was 11.7 ± 0.12 µM.

`O=C1NN(c2ccccc2)C(c2ccc(Cl)c(Cl)c2)=CC1=Cc1ccccc1[N+](=O)[O-]` [Compound 5a, 6-(3,4-Dichlorophenyl)-4-(2-nitrobenzylidene)-1-phenyl-1,4-dihydropyridazin-3(2H)-one] registered a melting point above 300 °C. Moreover, the IC50 at TNF-α was 4.93 ± 0.06 nM. In addition, on COX-2, the half-inhibitory concentration (IC50) was 60 nM and the “Selectivity indexes (SI)” value came out at 212.17. The half-maximal inhibitory concentration (IC50) against 15-LOX worked out at 2.7 ± 0.95 µM. This molecule also had a 50% inhibitory concentration (IC50) against COX-1 of 12.73 ± 0.12 µM.

Take `O=C1NN(C(=O)c2ccccc2)C(c2ccc(Cl)c(Cl)c2)=CC1=Cc1cccc([N+](=O)[O-])c1` [Compound 8b, 2-Benzoyl-5-(3-nitrobenzylidene)-3-(3,4-dichlorophenyl)-1H-pyridazin-6-one]: the melting point lay in the range of 150 to 152 °C. Also, the IC50 against TNF-α came out at 3.47 ± 0.06 nM. In addition, on COX-2, the 50% inhibitory concentration (IC50) is 40 nM and the “Selectivity indexes (SI)” value is reported as 316.75. Further, the half-inhibitory concentration (IC50) on 15-LOX was determined as 2.47 ± 0.06 µM. On COX-1, inhibition was half-maximal at 12.67 ± 0.12 µM (IC50).

Take `CN(C)c1ccc(C=C2C=C(c3ccc(Cl)c(Cl)c3)N(C(=O)c3ccccc3)NC2=O)cc1` [Compound 8c, 2-Benzoyl-5-(4-dimethylaminobenzylidene)-3-(3,4-dichlorophenyl)-1H-pyridazin-6-one]: the melting point was 229 to 231 °C. Further, at TNF-α, the 50% inhibitory concentration (IC50) is 2.9 ± 0.1 nM. In addition, the “TNF-α inhibition, in words (discussion)” value at TNF-α (qualitative statement) is given as “lowest IC50 value”. For the same molecule, at COX-2, the IC50 was found to be 40 nM and the “Selectivity indexes (SI)” value turned out to be 326.75. Moreover, on 15-LOX, the IC50 was 3.17 ± 0.06 µM. This molecule yielded a concentration for half-maximal inhibition (IC50) at COX-1 of 13.07 ± 0.12 µM.

Molecule `O=C1OC(c2ccc(Cl)c(Cl)c2)=CC1=Cc1ccccc1[N+](=O)[O-]` [Compound 2a, 5-(3,4-Dichlorophenyl)3-(2-nitrobenzylidene)-furan-2-one] displayed a melting point of 259 to 261 °C. This molecule also showed an IC50 at TNF-α of 7.47 ± 0.12 nM. Besides, at COX-2, the IC50 turned out to be 350 ± 10 nM and the “Selectivity indexes (SI)” value is 12.94. This molecule gave a concentration for half-maximal inhibition (IC50) against 15-LOX of 5.1 ± 0.1 µM. The molecule further had a half-maximal inhibitory concentration (IC50) at COX-1 of 4.53 ± 0.12 µM.

`O=C1OC(c2ccc(Cl)c(Cl)c2)=CC1=Cc1cccc([N+](=O)[O-])c1` [Compound 2b, 5-(3,4-Dichlorophenyl)3-(3-nitrobenzylidene)-furan-2-one] had a melting point of 230 to 232 °C. The 50% inhibitory concentration (IC50) against TNF-α came to 7.77 ± 1.68 nM. On COX-2, the IC50 came to 280 ± 10 nM and the “Selectivity indexes (SI)” value is listed as 24.89. The IC50 against 15-LOX came to 4.4 ± 0.1 µM. The molecule also returned an IC50 against COX-1 of 6.97 ± 0.12 µM.

Take `O=c1[nH]nc(-c2ccc(Cl)c(Cl)c2)cc1Cc1ccccc1[N+](=O)[O-]` [Compound 7a, 3-(3,4-Dichlorophenyl)-5-[(2-nitropheny)l-methyl]-1H-pyridazin-6-one]: the concentration for half-maximal inhibition (IC50) at TNF-α came out at 8.53 ± 0.12 nM; at COX-2 (setting [1]) it was 170 ± 10 nM; against 15-LOX, 5.47 ± 0.12 µM; on COX-1 (setting [2]), 7.03 ± 0.15 µM. Besides, the “Selectivity indexes (SI)” value on COX-2 is reported as 41.35.

Take `CN(C)c1ccc(C=C(CC(=O)c2ccc(Cl)c(Cl)c2)C(=O)NCc2ccccc2)cc1` [Compound 4c, N-benzyl-2-(4-dimethylaminobenzylidene]-4-(3,4-dichlorophenyl)-4-oxobutanamide]: the melting point was in the range of 241 to 243 °C. Besides, at TNF-α, half-maximal inhibition (IC50) required 5.47 ± 0.12 nM. In addition, at COX-2, 50 nM corresponded to half-maximal inhibition (IC50) and the “Selectivity indexes (SI)” value amounted to 238.00. For the same molecule, the IC50 against 15-LOX was 4.67 ± 0.06 µM. The molecule further registered an IC50 against COX-1 of 11.9 ± 0.1 µM.

`O=C(CC(=Cc1cccc([N+](=O)[O-])c1)c1n[nH]c(=S)o1)c1ccc(Cl)c(Cl)c1` [Compound 9b, 1-(3,4-Dichlorophenyl)-4-(3-nitrophenyl)-3-(2-thioxo-4,5-dihydro-1,3,4-oxadiazol-5-yl)but-3-en-1-one]: the values for the IC50 on TNF-α, against 15-LOX and against COX-1 were 4.33 ± 0.12 nM, 1.63 ± 0.15 µM and 10.4 ± 0.12 µM, respectively.

Consider `CN(C)c1ccc(Cc2cc(-c3ccc(Cl)c(Cl)c3)n[nH]c2=O)cc1` [Compound 7c, 3-(3,4-Dichlorophenyl)-5-[(4-dimethylaminopheny)l-methyl]-1H-pyridazin-6-one], for which the IC50 came out at 7.57 ± 0.06 nM against TNF-α, 120 ± 10 nM at COX-2 (setting [1]), 4.67 ± 0.06 µM against 15-LOX and 8.33 ± 0.06 µM on COX-1 (setting [2]). Besides, the “Selectivity indexes (SI)” value on COX-2 turned out to be 69.42.

Turning to `O=c1[nH]nc(-c2ccc(Cl)c(Cl)c2)cc1Cc1cccc([N+](=O)[O-])c1` [Compound 7b, 3-(3,4-Dichlorophenyl)-5-[(3-nitropheny)l-methyl]-1H-pyridazin-6-one], the IC50 came to 8.17 ± 0.06 nM against TNF-α, 250 ± 10 nM on COX-2 (setting [1]), 5.87 ± 0.06 µM at 15-LOX and 6.67 ± 0.12 µM on COX-1 (setting [2]). The “Selectivity indexes (SI)” value at COX-2 is recorded as 26.68.

These data come from publication PMC8118430, “Utility of novel 2-furanones in synthesis of other heterocyclic compounds having anti-inflammatory activity with dual COX2/LOX inhibition” (Journal of Enzyme Inhibition and Medicinal Chemistry, 2021).
